Laboratory results: US8697385B1, “Protein controlling synthesis of collagen and associated methods” (Florida State University Research Foundation, Inc., priority 2009, dated 2014)

Key:
myosin IIB = assay: Western blot analysis of total nonmuscle myosin IIB level; format: cell-based, human; conditions: Western blot; ML-7 40 μM 16 h
Procedure: (§1) ML-7, blebbistatin, cytochalasin B, puromycin, and cycloheximide were purchased from Sigma. ML-7 was used at 40 μM, blebbistatin was used at 100 μM, and cytochalasin B was used at 20 μM. Cells were incubated with the drugs for 16 h before analysis. Puromycin (200 μg/ml) and cycloheximide (100 μg/ml) were added to the cells for 2 h. Human lung fibroblasts have been described previously.16 Scleroderma fibroblasts were purchased from the European Collection of Cell Cultures (cell line BM0070) and derived from the skin of a scleroderma patient. MEFs were derived from knock-in mice in which the 5′SL of the collagen α1(I) gene has been mutated (Parsons et al., submitted). Several independent cell isolates were used throughout the study. All cells were cultured in Dulbecco's modified Eagle's medium supplemented with 10% fetal bovine serum for up to 10 passages. […] [^32P]dCTP was included in the PCR step to label the products, which were resolved on sequencing gels, as described previously.^8,31,49,50 When RNA from polysomal fractions was analyzed, an equal aliquot of each fraction was used. […]
(§2) Protein concentration was estimated by the Bradford assay, with bovine serum albumin as standard.^51 Western blot analyses of cellular proteins were performed using 50 μg of protein. […] The medium was collected, and an aliquot was analyzed directly by Western blot analysis. […]

[1] = tested on: nonmuscle myosin filaments; assay: Immunostaining of nonmuscle myosin IIB filaments in scleroderma fibroblasts; format: cell-based, human; conditions: ML-7, compared with effect in lung fibroblasts
Procedure: as §1, §2

Δ5′SL MEFs = assay: Western blot analysis of collagen α1(I) polypeptide, Δ5′SL MEFs; format: cell-based, mouse; conditions: ML-7 treatment
Procedure: as §1, §2

[2] = tested on: LARP6 and nonmuscle myosin; assay: Coimmunoprecipitation of nonmuscle myosin IIB with HA-tagged LARP6; format: cell-based, human; conditions: lung fibroblasts; ML-7-treated vs control cells
Procedure: as §1, with “passages. Plasmid constructs and adenovirus preparation.” for “passages.”
One of the roles of nonmuscle myosin filaments may be to present collagen mRNAs to ribosomes. Therefore, we assessed if the association of collagen mRNAs with nonmuscle myosin is dependent on intact polysomes. […]

wild-type (WT) MEFs = assay: Western blot analysis of collagen α1(I) polypeptide, WT MEFs; format: cell-based, mouse; conditions: ML-7 treatment
Procedure: as §1, §2

## O=S(=O)(c1cccc2c(I)cccc12)N1CCCNCC1 [ML-7]
Myosin IIB
  total level of myosin IIB: remained unchanged
[1]
  myosin IIB immunostaining (filaments): same effect
Δ5′SL MEFs
  secretion of α1(I) polypeptide into the medium: did not affect
[2]
  myosin IIB pulled down with LARP6: significantly less
wild-type (WT) MEFs
  cellular level of α1(I) polypeptide: did not change
  secretion of α1(I) polypeptide into the medium: drastically reduced
